Assay results: ChEMBL document CHEMBL1201862, “PubChem BioAssay data set” (2004)
Activity calls are given as the source filed them.

Columns and labels:
Hexokinase HKDC1 = target: T1, Hexokinase HKDC1 (Homo sapiens, UniProt Q2TB90); experiment: inhibition of HKDC1 glucose phosphorylation – biochemical, W721R variant, dose response (AID 504729); type: functional
T1 sequence (Q2TB90 whole entry): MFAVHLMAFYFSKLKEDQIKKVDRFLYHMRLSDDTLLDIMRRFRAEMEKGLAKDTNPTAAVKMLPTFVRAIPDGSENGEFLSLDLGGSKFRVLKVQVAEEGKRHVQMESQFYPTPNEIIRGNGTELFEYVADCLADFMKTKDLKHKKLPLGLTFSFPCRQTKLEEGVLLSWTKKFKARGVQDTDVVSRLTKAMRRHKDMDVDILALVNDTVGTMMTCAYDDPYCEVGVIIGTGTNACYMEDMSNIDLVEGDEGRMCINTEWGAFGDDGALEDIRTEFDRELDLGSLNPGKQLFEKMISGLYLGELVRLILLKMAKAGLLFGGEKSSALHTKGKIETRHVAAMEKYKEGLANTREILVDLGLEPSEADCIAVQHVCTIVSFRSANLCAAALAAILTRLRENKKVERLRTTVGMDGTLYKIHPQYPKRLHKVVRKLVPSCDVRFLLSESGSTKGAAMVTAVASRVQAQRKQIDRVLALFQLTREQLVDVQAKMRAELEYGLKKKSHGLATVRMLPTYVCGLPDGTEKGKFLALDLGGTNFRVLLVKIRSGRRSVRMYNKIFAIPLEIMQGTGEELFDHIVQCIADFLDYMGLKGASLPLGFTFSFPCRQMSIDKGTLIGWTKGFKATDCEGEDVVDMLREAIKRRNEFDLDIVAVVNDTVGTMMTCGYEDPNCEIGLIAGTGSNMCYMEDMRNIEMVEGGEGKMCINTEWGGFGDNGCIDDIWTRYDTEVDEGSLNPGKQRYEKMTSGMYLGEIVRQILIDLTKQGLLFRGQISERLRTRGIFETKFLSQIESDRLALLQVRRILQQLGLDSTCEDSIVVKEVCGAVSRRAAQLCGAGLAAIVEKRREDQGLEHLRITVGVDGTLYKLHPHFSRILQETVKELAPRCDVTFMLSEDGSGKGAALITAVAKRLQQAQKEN

[1] = Luminescence Cell-Based Dose Confirmation HTS to Identify Inhibitors of Platelet Dense Granule Release. [Related pubchem assays: 1663 (Primary HTS), 1678 (Summary of Project)]; type: functional
[2] = fluconazole-exposed Candida albicans growth modulators – fluorescence, retest, confirmation (AID 2467); type: functional, cell-based
Insulin-degrading enzyme = target: T2, Insulin-degrading enzyme (Homo sapiens, UniProt P14735); experiment: recombinant IDE activation, cell-free – biochemical, fluorescence polarization, counter-screen for IDE activator project, dose response (AID 588681)
T2 sequence (P14735 whole entry): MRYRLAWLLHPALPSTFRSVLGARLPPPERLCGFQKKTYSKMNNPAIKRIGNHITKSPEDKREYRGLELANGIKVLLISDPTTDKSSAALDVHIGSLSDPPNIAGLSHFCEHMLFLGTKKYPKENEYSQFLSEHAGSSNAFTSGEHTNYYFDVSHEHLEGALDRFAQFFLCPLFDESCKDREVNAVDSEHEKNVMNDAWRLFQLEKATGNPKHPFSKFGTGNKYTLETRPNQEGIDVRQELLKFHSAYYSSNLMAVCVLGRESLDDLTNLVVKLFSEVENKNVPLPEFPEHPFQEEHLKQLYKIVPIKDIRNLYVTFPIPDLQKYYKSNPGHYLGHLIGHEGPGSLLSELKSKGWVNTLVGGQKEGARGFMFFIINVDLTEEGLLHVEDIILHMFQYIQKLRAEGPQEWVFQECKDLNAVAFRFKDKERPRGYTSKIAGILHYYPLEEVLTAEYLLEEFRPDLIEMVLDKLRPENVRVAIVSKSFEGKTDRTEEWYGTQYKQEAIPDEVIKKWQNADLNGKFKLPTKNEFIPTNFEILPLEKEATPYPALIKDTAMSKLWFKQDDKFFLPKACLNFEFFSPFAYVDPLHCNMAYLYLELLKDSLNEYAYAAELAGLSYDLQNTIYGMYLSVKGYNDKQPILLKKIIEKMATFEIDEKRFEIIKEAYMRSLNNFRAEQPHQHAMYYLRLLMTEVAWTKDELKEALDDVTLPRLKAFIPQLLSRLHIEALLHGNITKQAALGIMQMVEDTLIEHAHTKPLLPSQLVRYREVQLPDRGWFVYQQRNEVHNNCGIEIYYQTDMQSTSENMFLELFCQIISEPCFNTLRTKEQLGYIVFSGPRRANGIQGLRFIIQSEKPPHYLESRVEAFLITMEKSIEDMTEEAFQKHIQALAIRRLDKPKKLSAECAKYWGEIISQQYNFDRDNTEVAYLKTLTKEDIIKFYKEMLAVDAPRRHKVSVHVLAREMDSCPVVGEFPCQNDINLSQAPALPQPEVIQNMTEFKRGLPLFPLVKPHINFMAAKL

HEK293 = experiment: optical interference in Abeta FP readout, dose response, artefact control for IDE activator project, biochemical, fluorescence polarization (AID 588442); type: functional, cell-based; conditions: Homo sapiens
[3] = target: Protein kinase C delta type (Homo sapiens, UniProt Q05655); type: functional
Protein kinase C delta type, sequence (Q05655 whole entry): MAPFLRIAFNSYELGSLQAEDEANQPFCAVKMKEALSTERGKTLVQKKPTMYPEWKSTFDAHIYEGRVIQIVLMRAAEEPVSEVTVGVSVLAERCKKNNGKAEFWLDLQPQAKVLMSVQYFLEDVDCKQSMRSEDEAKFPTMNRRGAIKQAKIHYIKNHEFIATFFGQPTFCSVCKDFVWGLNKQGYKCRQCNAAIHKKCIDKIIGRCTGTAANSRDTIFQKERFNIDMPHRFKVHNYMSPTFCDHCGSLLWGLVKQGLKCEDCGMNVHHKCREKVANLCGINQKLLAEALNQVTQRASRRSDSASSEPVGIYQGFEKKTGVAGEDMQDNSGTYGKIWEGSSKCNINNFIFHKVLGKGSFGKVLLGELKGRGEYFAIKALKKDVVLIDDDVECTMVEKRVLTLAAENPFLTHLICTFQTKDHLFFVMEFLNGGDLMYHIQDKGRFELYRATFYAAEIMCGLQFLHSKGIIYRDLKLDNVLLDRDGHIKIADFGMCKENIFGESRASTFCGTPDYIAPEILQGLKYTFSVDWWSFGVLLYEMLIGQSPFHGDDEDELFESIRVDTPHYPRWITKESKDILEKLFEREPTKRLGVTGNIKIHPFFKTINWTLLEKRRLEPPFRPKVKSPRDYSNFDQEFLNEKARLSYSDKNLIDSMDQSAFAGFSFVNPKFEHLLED

[4] = target: Serine/threonine-protein kinase D2 (Homo sapiens, UniProt Q9BZL6); type: functional;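 note: measured against PRKD2 as one member of a kinome-wide kinase profiling panel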
SRSF protein kinase 1 = SRSF protein kinase 1 (Homo sapiens, UniProt Q96SB4); type: functional;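 note: measured as one member of a kinome-wide kinase profiling panel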
[5] = target: Mast/stem cell growth factor receptor Kit (Homo sapiens, UniProt P10721); type: functional;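 note: KIT entry within a kinase panel assay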
[6] = target: Tyrosine-protein kinase JAK3 (Homo sapiens, UniProt P52333); type: functional
Tyrosine-protein kinase JAK3, sequence (P52333 whole entry, the tested form may be a part): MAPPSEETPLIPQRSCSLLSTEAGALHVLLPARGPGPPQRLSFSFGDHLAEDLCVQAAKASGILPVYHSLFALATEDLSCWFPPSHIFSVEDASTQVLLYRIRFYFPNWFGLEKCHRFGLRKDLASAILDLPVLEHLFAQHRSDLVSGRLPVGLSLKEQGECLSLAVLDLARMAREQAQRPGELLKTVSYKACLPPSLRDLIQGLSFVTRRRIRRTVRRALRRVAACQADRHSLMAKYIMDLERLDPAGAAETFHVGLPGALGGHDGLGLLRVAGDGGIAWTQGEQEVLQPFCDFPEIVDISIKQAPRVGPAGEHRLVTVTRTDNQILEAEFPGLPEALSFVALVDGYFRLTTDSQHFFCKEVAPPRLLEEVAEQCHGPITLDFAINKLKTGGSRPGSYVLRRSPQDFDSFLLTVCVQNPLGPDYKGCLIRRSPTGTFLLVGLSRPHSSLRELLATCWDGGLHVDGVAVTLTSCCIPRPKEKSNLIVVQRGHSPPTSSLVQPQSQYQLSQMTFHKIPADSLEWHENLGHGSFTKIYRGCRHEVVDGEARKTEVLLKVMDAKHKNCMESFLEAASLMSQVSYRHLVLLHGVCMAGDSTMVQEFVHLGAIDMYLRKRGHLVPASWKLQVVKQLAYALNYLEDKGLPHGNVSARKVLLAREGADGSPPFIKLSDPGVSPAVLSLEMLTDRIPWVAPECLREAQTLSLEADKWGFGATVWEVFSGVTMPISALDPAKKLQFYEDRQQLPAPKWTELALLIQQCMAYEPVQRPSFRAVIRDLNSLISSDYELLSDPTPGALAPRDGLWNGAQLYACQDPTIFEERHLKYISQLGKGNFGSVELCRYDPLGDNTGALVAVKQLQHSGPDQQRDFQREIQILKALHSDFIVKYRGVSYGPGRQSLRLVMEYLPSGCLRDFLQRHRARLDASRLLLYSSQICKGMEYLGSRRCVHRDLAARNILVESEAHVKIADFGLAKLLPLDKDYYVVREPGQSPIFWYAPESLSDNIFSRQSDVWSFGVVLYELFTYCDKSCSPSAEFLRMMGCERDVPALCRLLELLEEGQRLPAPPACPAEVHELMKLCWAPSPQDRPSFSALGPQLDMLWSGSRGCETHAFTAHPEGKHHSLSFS

LIM domain kinase 1 = LIM domain kinase 1 (Homo sapiens, UniProt P53667); experiment: Navigating the Kinome. Panel member name: LIMK1; type: functional
[7] = target: Proto-oncogene tyrosine-protein kinase Src (Homo sapiens, UniProt P12931); type: functional;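 note: SRC entry within a kinome-wide kinase profiling panel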
Proto-oncogene tyrosine-protein kinase Src, sequence (P12931 2-536 limits assumed): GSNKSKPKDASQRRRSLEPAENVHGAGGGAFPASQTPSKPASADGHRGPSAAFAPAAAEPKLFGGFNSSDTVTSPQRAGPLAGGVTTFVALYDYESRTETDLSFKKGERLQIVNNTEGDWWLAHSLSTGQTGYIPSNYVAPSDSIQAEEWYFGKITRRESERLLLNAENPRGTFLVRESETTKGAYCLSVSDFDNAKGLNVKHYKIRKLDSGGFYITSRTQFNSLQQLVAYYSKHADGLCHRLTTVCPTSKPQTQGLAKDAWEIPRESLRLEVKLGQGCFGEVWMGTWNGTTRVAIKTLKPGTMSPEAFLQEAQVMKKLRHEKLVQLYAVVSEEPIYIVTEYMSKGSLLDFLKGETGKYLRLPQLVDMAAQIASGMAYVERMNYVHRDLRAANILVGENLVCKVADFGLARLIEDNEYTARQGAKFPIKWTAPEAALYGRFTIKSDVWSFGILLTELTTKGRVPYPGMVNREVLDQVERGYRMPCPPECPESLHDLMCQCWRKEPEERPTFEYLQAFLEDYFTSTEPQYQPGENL

Misshapen-like kinase 1 = Misshapen-like kinase 1 (Homo sapiens, UniProt Q8N4C8); type: functional;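 note: kinome panel screen with MINK as the panel member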
Misshapen-like kinase 1, sequence (Q8N4C8 whole entry): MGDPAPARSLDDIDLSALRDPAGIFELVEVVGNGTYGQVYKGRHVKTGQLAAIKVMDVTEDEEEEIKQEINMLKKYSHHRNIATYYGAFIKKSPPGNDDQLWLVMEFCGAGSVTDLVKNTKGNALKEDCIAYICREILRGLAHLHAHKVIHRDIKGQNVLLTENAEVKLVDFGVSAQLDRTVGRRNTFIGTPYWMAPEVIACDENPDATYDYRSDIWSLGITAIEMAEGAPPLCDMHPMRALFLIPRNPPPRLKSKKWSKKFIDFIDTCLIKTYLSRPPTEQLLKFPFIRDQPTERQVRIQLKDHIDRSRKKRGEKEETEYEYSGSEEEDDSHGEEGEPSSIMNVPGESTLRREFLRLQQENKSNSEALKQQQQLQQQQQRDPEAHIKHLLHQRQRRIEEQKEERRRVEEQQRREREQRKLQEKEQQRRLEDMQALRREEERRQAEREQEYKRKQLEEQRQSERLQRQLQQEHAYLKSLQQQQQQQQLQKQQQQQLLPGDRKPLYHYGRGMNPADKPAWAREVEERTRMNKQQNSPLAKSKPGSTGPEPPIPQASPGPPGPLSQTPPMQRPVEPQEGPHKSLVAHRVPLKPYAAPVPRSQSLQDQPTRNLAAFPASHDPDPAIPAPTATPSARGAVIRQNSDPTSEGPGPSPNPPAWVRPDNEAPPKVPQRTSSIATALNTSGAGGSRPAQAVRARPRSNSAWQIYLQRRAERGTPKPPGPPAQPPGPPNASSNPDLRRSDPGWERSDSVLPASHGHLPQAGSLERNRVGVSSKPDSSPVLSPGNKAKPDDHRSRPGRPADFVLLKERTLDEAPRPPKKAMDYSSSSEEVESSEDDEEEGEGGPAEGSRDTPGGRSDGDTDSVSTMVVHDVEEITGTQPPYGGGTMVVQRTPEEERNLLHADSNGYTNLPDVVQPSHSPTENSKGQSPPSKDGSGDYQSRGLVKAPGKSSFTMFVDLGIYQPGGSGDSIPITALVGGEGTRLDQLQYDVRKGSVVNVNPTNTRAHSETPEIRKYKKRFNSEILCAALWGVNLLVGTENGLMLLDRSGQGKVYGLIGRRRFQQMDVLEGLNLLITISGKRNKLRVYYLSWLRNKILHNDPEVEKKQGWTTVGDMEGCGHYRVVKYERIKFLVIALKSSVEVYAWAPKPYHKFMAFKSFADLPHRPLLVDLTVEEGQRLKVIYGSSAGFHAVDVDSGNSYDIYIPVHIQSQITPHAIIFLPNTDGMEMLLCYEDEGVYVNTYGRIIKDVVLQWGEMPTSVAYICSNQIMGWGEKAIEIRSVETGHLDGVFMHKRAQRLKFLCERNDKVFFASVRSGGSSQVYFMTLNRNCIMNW

[8] = target: Interleukin-1 receptor-associated kinase 1 (Homo sapiens, UniProt P51617); type: functional;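 note: IRAK1 tested as one member of a kinome panel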
Interleukin-1 receptor-associated kinase 1, sequence (P51617 whole entry): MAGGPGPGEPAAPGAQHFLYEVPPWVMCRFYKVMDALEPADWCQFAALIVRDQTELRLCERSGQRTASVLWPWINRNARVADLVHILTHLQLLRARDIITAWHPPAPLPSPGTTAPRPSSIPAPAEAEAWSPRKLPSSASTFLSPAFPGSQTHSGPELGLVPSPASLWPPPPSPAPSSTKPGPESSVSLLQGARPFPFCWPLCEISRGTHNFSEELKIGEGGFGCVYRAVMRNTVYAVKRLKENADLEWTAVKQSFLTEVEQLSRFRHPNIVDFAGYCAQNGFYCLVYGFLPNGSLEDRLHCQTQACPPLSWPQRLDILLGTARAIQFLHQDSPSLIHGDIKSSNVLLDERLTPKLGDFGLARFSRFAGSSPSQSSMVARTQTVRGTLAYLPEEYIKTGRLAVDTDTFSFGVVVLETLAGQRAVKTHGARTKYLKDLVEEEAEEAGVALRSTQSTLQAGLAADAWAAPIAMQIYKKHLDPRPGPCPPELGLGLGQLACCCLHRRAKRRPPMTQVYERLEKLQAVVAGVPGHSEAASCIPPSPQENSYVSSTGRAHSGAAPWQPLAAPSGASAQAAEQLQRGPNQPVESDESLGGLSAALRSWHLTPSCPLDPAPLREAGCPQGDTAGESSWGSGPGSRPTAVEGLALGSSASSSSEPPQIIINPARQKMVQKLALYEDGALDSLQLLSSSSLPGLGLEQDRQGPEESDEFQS

[9] = target: Rho-associated protein kinase 1 (Homo sapiens, UniProt Q13464); type: functional;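 note: measured within a broad kinome-wide panel profiling many kinases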
[10] = target: Homeodomain-interacting protein kinase 4 (Homo sapiens, UniProt Q8NE63); type: functional
[11] = target: 3-phosphoinositide-dependent protein kinase 1 (Homo sapiens, UniProt O15530); type: functional;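 note: value comes from the Navigating the Kinome panel, PDPK1 member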
3-phosphoinositide-dependent protein kinase 1, sequence (O15530 whole entry): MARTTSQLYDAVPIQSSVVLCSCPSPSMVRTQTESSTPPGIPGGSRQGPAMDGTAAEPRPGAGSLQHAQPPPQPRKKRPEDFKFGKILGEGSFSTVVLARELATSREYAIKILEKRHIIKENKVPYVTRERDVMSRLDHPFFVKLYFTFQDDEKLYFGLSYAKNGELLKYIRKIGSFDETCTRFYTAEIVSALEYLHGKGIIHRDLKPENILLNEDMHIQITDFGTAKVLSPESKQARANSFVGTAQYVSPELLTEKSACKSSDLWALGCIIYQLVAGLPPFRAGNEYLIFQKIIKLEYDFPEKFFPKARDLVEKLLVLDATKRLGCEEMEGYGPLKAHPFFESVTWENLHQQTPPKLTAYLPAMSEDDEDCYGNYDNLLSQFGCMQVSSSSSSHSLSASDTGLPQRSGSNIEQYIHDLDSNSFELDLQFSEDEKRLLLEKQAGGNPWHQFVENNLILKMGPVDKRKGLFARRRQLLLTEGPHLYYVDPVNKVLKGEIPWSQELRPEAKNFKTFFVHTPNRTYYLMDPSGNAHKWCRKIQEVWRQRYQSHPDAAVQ

[12] = target: Serine/threonine-protein kinase Nek2 (Homo sapiens, UniProt P51955); type: functional
[13] = target: cAMP-dependent protein kinase catalytic subunit alpha (Homo sapiens, UniProt P17612); type: functional

Cc1ccc(S(=O)(=O)/N=C2\C=C(Nc3cccc(C(=O)O)c3)C(=O)c3ccccc32)cc1
IC50 (Hexokinase HKDC1): 4.31 µM (active)

O=[N+]([O-])c1c(Nc2ccccn2)cc(Cl)c2nonc12
EC50 [1]: 3.55 µM (active)

CC[C@@H](C)[C@H](CNC)NC[C@@H](Cc1cccc2ccccc12)NCCc1cccc(C(F)(F)F)c1
EC50 [2]: > 38 µM (not active) | EC50 (Insulin-degrading enzyme): > 54.7 µM (inactive) | EC50 (HEK293): > 54.7 µM (inactive)

CC(C)(CO)CNc1nccc(-c2c(-c3ccc(F)cc3)nc3c(CC4CC4)nccn23)n1
Ki [3]: > 7.94 µM (inactive) | Ki [4]: > 10 µM (inactive) | Ki (SRSF protein kinase 1): > 7.94 µM (inactive) | Ki [5]: > 1.26 µM (inactive) | Ki [6]: > 1.58 µM (inactive) | Ki (LIM domain kinase 1): 0.126 µM (active) | Ki [7]: > 2 µM (inactive) | Ki (Misshapen-like kinase 1): 3.16 µM (active) | Ki [8]: > 7.94 µM (inactive) | Ki [9]: > 10 µM (inactive) | Ki [10]: > 7.94 µM (inactive) | Ki [11]: > 3.98 µM (inactive) | Ki [12]: > 10 µM (inactive) | Ki [13]: > 7.94 µM (inactive)
